Laboratory results taken from PubChem BioAssay (NCI).
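A five-concentration, 48-hour dose response in 96-well plates underlies each endpoint, interpolated linearly between surrounding concentrations. GI50 = concentration required for 50% inhibition of growth. TGI marks complete inhibition of growth.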

Tests used:
Test in all cases: inhibition of tumour cell growth, NCI panel, 48 h
OVCAR-4 ovarian = tested on: OVCAR-4 ovarian
OVCAR-3 ovarian = tested on: OVCAR-3 ovarian
MDA-MB-435 = tested on: MDA-MB-435
SNB-19 CNS = tested on: SNB-19 CNS
NCI-H226 lung = tested on: NCI-H226 lung
SN12C renal = tested on: SN12C renal
HCT-15 colon = tested on: HCT-15 colon
SF-539 CNS = tested on: SF-539 CNS
SK-OV-3 ovarian = tested on: SK-OV-3 ovarian
MOLT-4 leukemia = tested on: MOLT-4 leukemia
SK-MEL-2 melanoma = tested on: SK-MEL-2 melanoma
M14 melanoma = tested on: M14 melanoma
HT29 colon = tested on: HT29 colon
OVCAR-5 ovarian = tested on: OVCAR-5 ovarian
SK-MEL-5 melanoma = tested on: SK-MEL-5 melanoma
TK-10 renal = tested on: TK-10 renal
HOP-62 NSCLC = tested on: HOP-62 NSCLC
A549 NSCLC = tested on: A549 NSCLC
BT-549 breast = tested on: BT-549 breast
NCI-H460 lung = tested on: NCI-H460 lung
SK-MEL-28 melanoma = tested on: SK-MEL-28 melanoma
HS 578T breast = tested on: HS 578T breast
UACC-62 melanoma = tested on: UACC-62 melanoma
HL-60(TB) leukemia = tested on: HL-60(TB) leukemia
786-0 renal = tested on: 786-0 renal
COLO 205 colon = tested on: COLO 205 colon
NCI-H522 lung = tested on: NCI-H522 lung
U251 CNS = tested on: U251 CNS
IGROV1 ovarian = tested on: IGROV1 ovarian
KM12 colon = tested on: KM12 colon
OVCAR-8 ovarian = tested on: OVCAR-8 ovarian
SNB-75 CNS = tested on: SNB-75 CNS
NCI/ADR-RES ovarian = tested on: NCI/ADR-RES ovarian
HCC-2998 colon = tested on: HCC-2998 colon
CAKI-1 renal = tested on: CAKI-1 renal
PC-3 prostate = tested on: PC-3 prostate
SW-620 colon = tested on: SW-620 colon
A498 renal = tested on: A498 renal
ACHN renal = tested on: ACHN renal
HOP-92 NSCLC = tested on: HOP-92 NSCLC
UACC-257 melanoma = tested on: UACC-257 melanoma
MDA-MB-231 breast = tested on: MDA-MB-231 breast
SF-268 CNS = tested on: SF-268 CNS
T-47D breast = tested on: T-47D breast
DU-145 prostate = tested on: DU-145 prostate
CCRF-CEM leukemia = tested on: CCRF-CEM leukemia
NCI-H23 lung = tested on: NCI-H23 lung
HCT-116 colon = tested on: HCT-116 colon
SF-295 CNS = tested on: SF-295 CNS
K-562 leukemia = tested on: K-562 leukemia
LOX IMVI melanoma = tested on: LOX IMVI melanoma
RXF 393 renal = tested on: RXF 393 renal
SR leukemia = tested on: SR leukemia
MALME-3M melanoma = tested on: MALME-3M melanoma
RPMI-8226 leukemia = tested on: RPMI-8226 leukemia
UO-31 renal = tested on: UO-31 renal
MCF7 breast = tested on: MCF7 breast
EKVX NSCLC = tested on: EKVX NSCLC

Compound: CC(C)=CC(=O)OCC(=O)O[C@@H]1C[C@]2(C(C)C)O[C@@]1(C)[C@@H]1CC[C@@H](C)[C@H]1[C@@H]2OC(=O)/C=C/c1ccccc1
- GI50 (OVCAR-4 ovarian): 30.2 µM
- TGI (OVCAR-4 ovarian): > 100 µM
- GI50 (OVCAR-3 ovarian): > 42.3 µM
- TGI (OVCAR-3 ovarian): > 100 µM
- GI50 (MDA-MB-435): > 67.9 µM
- TGI (MDA-MB-435): > 100 µM
- GI50 (SNB-19 CNS): > 58.5 µM
- TGI (SNB-19 CNS): > 100 µM
- GI50 (NCI-H226 lung): 9.47 µM
- TGI (NCI-H226 lung): > 94.1 µM
- GI50 (SN12C renal): 5.9 µM
- TGI (SN12C renal): > 93.2 µM
- GI50 (HCT-15 colon): 42.1 µM
- TGI (HCT-15 colon): > 100 µM
- GI50 (SF-539 CNS): > 72.7 µM
- TGI (SF-539 CNS): > 100 µM
- GI50 (SK-OV-3 ovarian): > 55.7 µM
- TGI (SK-OV-3 ovarian): > 100 µM
- GI50 (MOLT-4 leukemia): 43.4 µM
- TGI (MOLT-4 leukemia): > 100 µM
- GI50 (SK-MEL-2 melanoma): > 56.4 µM
- TGI (SK-MEL-2 melanoma): > 85.9 µM
- GI50 (M14 melanoma): > 57.8 µM
- TGI (M14 melanoma): > 100 µM
- GI50 (HT29 colon): > 56.4 µM
- TGI (HT29 colon): > 100 µM
- GI50 (OVCAR-5 ovarian): > 62.7 µM
- TGI (OVCAR-5 ovarian): > 100 µM
- GI50 (SK-MEL-5 melanoma): 49.2 µM
- TGI (SK-MEL-5 melanoma): > 66.1 µM
- GI50 (TK-10 renal): > 70.4 µM
- TGI (TK-10 renal): > 100 µM
- GI50 (HOP-62 NSCLC): > 62.3 µM
- TGI (HOP-62 NSCLC): > 100 µM
- GI50 (A549 NSCLC): > 57.2 µM
- TGI (A549 NSCLC): > 100 µM
- GI50 (BT-549 breast): 2.11 µM
- TGI (BT-549 breast): > 73.2 µM
- GI50 (NCI-H460 lung): > 63 µM
- TGI (NCI-H460 lung): > 100 µM
- GI50 (SK-MEL-28 melanoma): > 63.3 µM
- TGI (SK-MEL-28 melanoma): > 100 µM
- GI50 (HS 578T breast): 0.064 µM
- TGI (HS 578T breast): 0.548 µM
- GI50 (UACC-62 melanoma): 24.4 µM
- TGI (UACC-62 melanoma): > 100 µM
- GI50 (HL-60(TB) leukemia): 11.6 µM
- TGI (HL-60(TB) leukemia): > 69.4 µM
- GI50 (786-0 renal): 7.21 µM
- TGI (786-0 renal): > 100 µM
- GI50 (COLO 205 colon): > 48.5 µM
- TGI (COLO 205 colon): > 65.3 µM
- GI50 (NCI-H522 lung): > 62.1 µM
- TGI (NCI-H522 lung): > 100 µM
- GI50 (U251 CNS): > 56.4 µM
- TGI (U251 CNS): > 100 µM
- GI50 (IGROV1 ovarian): > 61.8 µM
- TGI (IGROV1 ovarian): > 100 µM
- GI50 (KM12 colon): > 56 µM
- TGI (KM12 colon): > 100 µM
- GI50 (OVCAR-8 ovarian): 0.912 µM
- TGI (OVCAR-8 ovarian): > 72.9 µM
- GI50 (SNB-75 CNS): 34.2 µM
- TGI (SNB-75 CNS): > 87.5 µM
- GI50 (NCI/ADR-RES ovarian): 2.25 µM
- TGI (NCI/ADR-RES ovarian): > 85.5 µM
- GI50 (HCC-2998 colon): > 57.2 µM
- TGI (HCC-2998 colon): > 100 µM
- GI50 (CAKI-1 renal): 0.346 µM
- GI50 (PC-3 prostate): 6.01 µM
- TGI (PC-3 prostate): > 100 µM
- GI50 (SW-620 colon): > 60.4 µM
- TGI (SW-620 colon): > 100 µM
- GI50 (A498 renal): 0.179 µM
- TGI (A498 renal): 0.679 µM
- GI50 (ACHN renal): 0.3 µM
- TGI (ACHN renal): > 19.6 µM
- GI50 (HOP-92 NSCLC): 5.18 µM
- TGI (HOP-92 NSCLC): > 75.4 µM
- GI50 (UACC-257 melanoma): > 47.5 µM
- TGI (UACC-257 melanoma): > 94.3 µM
- GI50 (MDA-MB-231 breast): > 51.7 µM
- TGI (MDA-MB-231 breast): > 85.2 µM
- GI50 (SF-268 CNS): > 38.1 µM
- TGI (SF-268 CNS): > 100 µM
- GI50 (T-47D breast): 18.9 µM
- TGI (T-47D breast): > 100 µM
- GI50 (DU-145 prostate): > 69.2 µM
- TGI (DU-145 prostate): > 100 µM
- GI50 (CCRF-CEM leukemia): 29.6 µM
- TGI (CCRF-CEM leukemia): > 100 µM
- GI50 (NCI-H23 lung): > 50.4 µM
- TGI (NCI-H23 lung): > 96.4 µM
- GI50 (HCT-116 colon): 11 µM
- TGI (HCT-116 colon): > 100 µM
- GI50 (SF-295 CNS): > 48.3 µM
- TGI (SF-295 CNS): > 100 µM
- GI50 (K-562 leukemia): 7.75 µM
- TGI (K-562 leukemia): > 100 µM
- GI50 (LOX IMVI melanoma): 33.4 µM
- TGI (LOX IMVI melanoma): > 70.5 µM
- GI50 (RXF 393 renal): 0.382 µM
- TGI (RXF 393 renal): 11.7 µM
- GI50 (SR leukemia): 11.1 µM
- TGI (SR leukemia): > 100 µM
- GI50 (MALME-3M melanoma): > 55.5 µM
- TGI (MALME-3M melanoma): > 100 µM
- GI50 (RPMI-8226 leukemia): 7.89 µM
- TGI (RPMI-8226 leukemia): > 100 µM
- GI50 (UO-31 renal): 0.239 µM
- TGI (UO-31 renal): 2.36 µM
- GI50 (MCF7 breast): 35.3 µM
- TGI (MCF7 breast): > 100 µM
- GI50 (EKVX NSCLC): > 51 µM
- TGI (EKVX NSCLC): > 100 µM
